Assay results reported in paper PMC5899833, “Population pharmacokinetics/pharmacodynamics of micafungin against Candida species in obese, critically ill, and morbidly obese critically ill patients” (Critical Care, 2018).
Where two headings read alike, the source gives them in different places. Starred links: 1 amine or outer side, 2 acyl side, 3 side chain; linkers in the order of their positions; H or OH if unused. Positions of bridges follow the written chain, without caps; N, C: chain ends. Non-standard residues stand in square brackets, D forms with d. Residues, ends and D or L forms follow the SMILES beside them. *: point of attachment. hTyr(3S-OH,4S-OH,3'-OSO3H) = N[C@H](C(=O)O)[C@H](O)[C@@H](O)c1ccc(O)c(OS(=O)(=O)O)c1; Orn(4R-OH,5R-OH) = O=C([C@H](C[C@@H](O)[C@@H](O)N[*:3])N[*:1])[*:2]; Pro(3S-OH,4S-Me) = C[C@H]1CN[C@H](C(=O)O)[C@H]1O; X1 = CCCCCOc1ccc(-c2cc(-c3ccc(C(=O)*)cc3)no2)cc1; Gln(3R-OH) = NC(=O)C[C@@H](O)[C@H](N)C(=O)O; Hyp = O=C(O)[C@@H]1C[C@@H](O)CN1

Test: Population pharmacokinetic model of total plasma micafungin in patients
Assay type: in vivo, human
Conditions: 31 patients; for clearance: human
Description: A pharmacokinetic study was carried out in patients under micafungin empirical or directed treatment for invasive candidiasis. The population consisted of 11 morbidly obese critically ill adult patients (from the Hospital Universitario La Paz, Madrid, Spain), 10 nonobese critically ill patients, and 10 obese noncritically ill patients (from the Hospital del Mar, Barcelona, Spain). Patients admitted to ICUs were those considered to be critically ill. The study protocol was approved by the Ethics Committee of the Hospital La Paz (Madrid, Spain) and the Hospital del Mar (Barcelona, Spain). Written informed consent was obtained from patients (or relatives if the patient was unable to provide due to their critical situation) before blood sampling.
Demographic and clinical data prior to initiation of antifungal treatment were collected. Severity (Simplified Acute Physiology Score (SAPS) II), Sequential Organ Failure Assessment (SOFA) score, and risk for invasive candidiasis (Candida score) (except for patients with microbiologically documented infections) were calculated. Patients received dosage regimens of once-daily 100 mg or 150 mg micafungin (Astellas Pharma S.A., Spain) diluted in 100 ml isotonic saline solution that was intravenously infused over 60 min at the discretion of the treating physician (following the prescribing information and hospital treatment guidelines). On day 3, blood samples were collected at baseline (predose) and after 1, 3, 5, 8, 18, and 24 h. Additional blood samples at day 0 and day 7 were collected when feasible.
Total micafungin concentrations in plasma were measured by a validated ultra-high-performance liquid chromatography (UHPLC)-tandem mass spectrometry (MS/MS) method, from 0.2 to 30 μg/ml, on a Shimadzu Nexera 2 UHPLC system coupled to a Shimadzu 8030+ triple quadruple mass spectrometer (Shimadzu, Kyoto, Japan). Clinical samples were assayed alongside plasma calibrators and quality controls and met batch acceptance criteria.
To describe total micafungin concentrations, one- and two-compartment models were developed with the nonparametric adaptive grid algorithm within the freely available Pmetrics software package for R (Los Angeles, CA, USA). Elimination from the central compartment, and intercompartmental distribution into the peripheral compartment (two-compartment model), were modeled as first-order processes. The discrimination between different models resulted from the comparison of the −2 log-likelihood (−2LL). A p value of < 0.05 was considered statistically significant.
Age, gender, body weight, body mass index (BMI), Acute Physiology and Chronic Health Evaluation (APACHE) II, serum creatinine concentration, measured creatinine clearance, Cockroft-Gault estimated creatinine clearance, and serum albumin concentration were evaluated as covariates. Covariate selection was performed using a stepwise linear regression from R on all covariates and Bayesian posterior parameters. Potential covariates were separately entered into the model and statistically tested by use of the –2LL values.
Goodness-of-fit was assessed by linear regression, with an observed-predicted plot, coefficients of determination, and LL values. Predictive performance evaluation was based on mean error of prediction (bias) and mean bias-adjusted squared error of prediction (imprecision) of the population and individual prediction models. The internal validity of the population pharmacokinetic model was assessed by the bootstrap resampling method (n = 1000) and normalized prediction distribution errors (NPDE). Using a visual predictive check method, parameters obtained from the bootstrap method were plotted with the observed concentrations. NPDE plots were checked for normal distribution characteristics and trends in data errors. […]

[1] = final two-compartment covariate population PK model, 100 or 150 mg once daily iv
[2] = final two-compartment covariate population PK model, 100 or 150 mg once daily iv, SD

## CCCCCOc1ccc(-c2cc(-c3ccc(C(=O)N[C@H]4C[C@@H](O)[C@@H](O)NC(=O)[C@@H]5[C@@H](O)[C@@H](C)CN5C(=O)[C@H]([C@H](O)CC(N)=O)NC(=O)[C@H]([C@H](O)[C@@H](O)c5ccc(O)c(OS(=O)(=O)O)c5)NC(=O)[C@@H]5C[C@@H](O)CN5C(=O)[C@H]([C@@H](C)O)NC4=O)cc3)no2)cc1 [micafungin] (X1-[Orn(4R-OH,5R-OH)]T[Hyp][hTyr(3S-OH,4S-OH,3'-OSO3H)][Gln(3R-OH)][Pro(3S-OH,4S-Me)]; lactam 1-C)
[1]
  Central volume, median: 16.34 L
  kcp, median: 0.26 h⁻¹
  kpc, median: 0.14 h⁻¹
[2]
  Central volume, mean ± SD: 16.34 ± 5.87 L
  kcp (rate constant central to peripheral compartment), mean ± SD: 0.38 ± 0.37 h⁻¹
  kpc (rate constant peripheral to central compartment), mean ± SD: 0.32 ± 0.31 h⁻¹
plasma, iv, final two-compartment covariate population PK model, 100 or 150 mg once daily iv, read-out: Clearance, median (converted)
  clearance: 12.2 mL/min
Final two-compartment covariate population PK model (weight, age on CL), 100 or 150 mg once daily iv over 60 min, 242 total plasma concentrations, UHPLC-MS/MS, SD, read-out: Clearance, mean ± SD (converted)
  clearance: 13.3 mL/min
